Measurements as given in patent publication US20230054458A1, “ANTI-CLAUDIN ANTIBODY-DRUG CONJUGATE AND PHARMACEUTICAL USE THEREOF” (JIANGSU HENGRUI MEDICINE CO., LTD., priority 2019, published 2023).
Like-named read-outs stand apart in the source and are kept apart here.

Key:
[1] = tested on: SK-BR-3 tumor cells; test: Inhibition of in vitro proliferation of SK-BR-3 tumor cells (CTG); format: cell-based; conditions: Homo sapiens, SK-BR-3, 144 h, read-out: IC50 (nM) SK-BR-3
Procedure: (§1) This experiment was intended to test the inhibitory activity of the pharmaceutical compounds of the present disclosure against the in vitro proliferation of U87MG cells (glioma cells, Cell Bank, Chinese Academy of Sciences, Catalog #TCHu138) and SK-BR-3 tumor cells (human breast cancer cells, ATCC, Catalog #HTB-30). The cells were treated in vitro with a compound at different concentrations. After 6 days of culture, the proliferation of cells was tested using CTG (CellTiter-Glo® Luminescent Cell Viability Assay, Promega, Catalog #G7573) reagents, and the in vitro activity of the compound was evaluated according to the IC50 value.
(§2) The method of testing the inhibition of the in vitro proliferation of U87MG cells was described below as an example for the method of assaying for the inhibitory activity of the compounds of the present disclosure against the in vitro proliferation of tumor cells. The method is also applicable to, but not limited to, tests for inhibitory activity against the in vitro proliferation of other tumor cells.
(§3) 1. Cell culture: U87MG and SK-BR-3 cells were cultured in EMEM medium (GE, Catalog #SH30024.01) containing 10% FBS and McCoy's 5A medium (Gibco, Catalog #16600-108) containing 10% FBS, respectively.
(§4) 2. Preparation of cells. U87MG and SK-BR-3 cells growing at log phase were washed once with PBS (phosphate buffer, Shanghai BasalMedia Technologies Co., Ltd.) and then digested with 2-3 mL of trypsin (0.25% Trypsin-EDTA (1×), Gibico, Life Technologies) for 2-3 min. After the cells were completely digested, 10-15 mL of cell culture media were added to elute the digested cells. The mixtures were centrifuged at 1000 rpm for 5 min, and the supernatants were discarded. Then the cells were resuspended in 10-20 mL of cell culture media to give single-cell suspensions.
3. Cell plating. […]
(§5) 7. Plate reading. The 96-well cell culture plate was taken out and tested in a microplate reader (BMG labtech, PHERAstar FS) for chemiluminescence.
(§6) Data were processed and analyzed using Microsoft Excel and Graphpad Prism 5.

[2] = tested on: U87MG cells; test: Inhibition of in vitro proliferation of U87MG cells (CTG); format: cell-based; conditions: Homo sapiens, U-87 MG, 144 h, read-out: IC50 (nM) U87
Procedure: as §1, §2, §3, §4
3. Cell plating. The U87MG and SK-BR-3 single-cell suspensions were each well mixed and adjusted with cell culture media to cell densities of 2.75×10^3 cells/mL and 8.25×10^3 cells/mL, respectively. The adjusted cell suspensions were each well mixed and added to 96-well cell culture plates at 180 μL/well. To each of the peripheral wells of the 96-well plates was added 200 μL of media only. The plate was incubated in an incubator for 24 h (37° C., 5% CO2).
4. Preparation of compounds. A compound was dissolved in DMSO (dimethyl sulfoxide, Shanghai Titan Scientific Co., Ltd.) to prepare a stock solution at an initial concentration of 10 mM.
Small molecule compounds were prepared at an initial concentration of 500 nM as follows.
Different test samples at concentration 100 μM (30 μL) were added to the first column of a 96-well U-bottom plate, and 20 μL of DMSO was added to each well of the second column through the eleventh column. The samples in the first column (10 μL) were added to the 20 μL of DMSO in the second column, and the mixtures were well mixed. The mixtures (10 μL) were added to the third column, and so on to the tenth column. The drugs in the plate (5 μL per well) were transferred to EMEM media (95 μL), and the mixtures were well mixed for later use.
5. Sample addition. The test samples prepared at different concentrations (20 μL) were added to a culture plate, with two duplicate wells set for each sample. […]
as §5, §6

[3] = in vitro proliferation, 6 days, CTG

Row | Structure (SMILES) | IC50 [1] [nM] | IC50 [2] [nM] | IC50 [2, 3] [nM] | further results
1 | CC[C@@]1(O)C(=O)OCc2c1cc1n(c2=O)Cc2c-1nc1cc(F)c(C)c3c1c2[C@@H](NC(=O)C1(O)CC1)CC3 [Example 1, N-((1S,9S)-9-ethyl-5-fluoro-9-hydroxy-4-methyl-10,13-dioxo-2,3,9,10,13,15-hexahydro-1H,12H-benzo[de]pyrano[3′,4′:6,7]indolizino[1,2-b]quinolin-1-yl)-1-hydroxycyclopropane-1-carboxamide] | 0.12 | 0.23 |  | 
2 | CC[C@@]1(O)C(=O)OCc2c1cc1n(c2=O)Cc2c-1nc1cc(F)c(C)c3c1c2[C@@H](NC(=O)C1(CO)CCC1)CC3 [Example 6, N-((1S,9S)-9-ethyl-5-fluoro-9-hydroxy-4-methyl-10,13-dioxo-2,3,9,10,13,15-hexahydro-1H,12H-benzo[de]pyrano[3′,4′:6,7]indolizino[1,2-b]quinolin-1-yl)-1-(hydroxymethyl)cyclobutane-1-carboxamide] |  |  | 1.83 | 
3 | CC[C@@]1(O)C(=O)OCc2c1cc1n(c2=O)Cc2c-1nc1cc(F)c(C)c3c1c2[C@@H](NC(=O)C1(O)CCCC1)CC3 [Example 4, N-((1S,9S)-9-ethyl-5-fluoro-9-hydroxy-4-methyl-10,13-dioxo-2,3,9,10,13,15-hexahydro-1H,12H-benzo[de]pyrano[3′,4′:6,7]indolizino[1,2-b]quinolin-1-yl)-1-hydroxycyclopentane-1-carboxamide] | 1.9 |  |  | 
4 | CC[C@@]1(O)C(=O)OCc2c1cc1n(c2=O)Cc2c-1nc1cc(F)c(C)c3c1c2[C@@H](NC(=O)C1(O)CCC1)CC3 [Example 7, N-((1S,9S)-9-ethyl-5-fluoro-9-hydroxy-4-methyl-10,13-dioxo-2,3,9,10,13,15-hexahydro-1H,12H-benzo[de]pyrano[3′,4′:6,7]indolizino[1,2-b]quinolin-1-yl)-1-hydroxycyclobutane-1-carboxamide] |  |  | 1.95 | 
5 | CC[C@@]1(O)C(=O)OCc2c1cc1n(c2=O)Cc2c-1nc1cc(F)c(C)c3c1c2[C@@H](NC(=O)C1(CO)CC1)CC3 [Example 5, N-((1S,9S)-9-ethyl-5-fluoro-9-hydroxy-4-methyl-10,13-dioxo-2,3,9,10,13,15-hexahydro-1H,12H-benzo[de]pyrano[3′,4′:6,7]indolizino[1,2-b]quinolin-1-yl)-1-(hydroxymethyl)cyclopropane-1-carboxamide] |  | 4.81 |  | 
6 | CC[C@@]1(O)C(=O)OCc2c1cc1n(c2=O)Cc2c-1nc1cc(F)c(C)c3c1c2[C@@H](NC(=O)[C@H](O)C1CC1)CC3 [(R)-2-cyclopropyl-N-((1S,9S)-9-ethyl-5-fluoro-9-hydroxy-4-methyl-10,13-dioxo-2,3,9,10,13,15-hexahydro-1H,12H-benzo[de]pyrano[3′,4′:6,7]indolizino[1,2-b]quinolin-1-yl)-2-hydroxyacetamide] |  |  | 0.86 | IC50 [1, 3]: 0.33 nM
